This passage reports IC50 results from patent US20260297070A1, “CYCLIC [COMPOUND LEFT OUT] WRN INHIBITORS” (Nimbus Wadjet, Inc., priority 2023, published 2026).

In the assay the target is T1, human Werner helicase (WRN-BV08, Uniprot Q14191, amino acids 517-1235 with L1074F point mutation) (Homo sapiens, UniProt Q14191, L1074F).
T1 construct: Uniprot Q14191, amino acids 517-1235 with L1074F point mutation; TEV-cleavable 8×His (C, cleaved yes); made in house; host or cells: Sf9 insect cells (baculovirus)
T1 sequence (Q14191 with tags, fused parts or gaps L1074F limits assumed): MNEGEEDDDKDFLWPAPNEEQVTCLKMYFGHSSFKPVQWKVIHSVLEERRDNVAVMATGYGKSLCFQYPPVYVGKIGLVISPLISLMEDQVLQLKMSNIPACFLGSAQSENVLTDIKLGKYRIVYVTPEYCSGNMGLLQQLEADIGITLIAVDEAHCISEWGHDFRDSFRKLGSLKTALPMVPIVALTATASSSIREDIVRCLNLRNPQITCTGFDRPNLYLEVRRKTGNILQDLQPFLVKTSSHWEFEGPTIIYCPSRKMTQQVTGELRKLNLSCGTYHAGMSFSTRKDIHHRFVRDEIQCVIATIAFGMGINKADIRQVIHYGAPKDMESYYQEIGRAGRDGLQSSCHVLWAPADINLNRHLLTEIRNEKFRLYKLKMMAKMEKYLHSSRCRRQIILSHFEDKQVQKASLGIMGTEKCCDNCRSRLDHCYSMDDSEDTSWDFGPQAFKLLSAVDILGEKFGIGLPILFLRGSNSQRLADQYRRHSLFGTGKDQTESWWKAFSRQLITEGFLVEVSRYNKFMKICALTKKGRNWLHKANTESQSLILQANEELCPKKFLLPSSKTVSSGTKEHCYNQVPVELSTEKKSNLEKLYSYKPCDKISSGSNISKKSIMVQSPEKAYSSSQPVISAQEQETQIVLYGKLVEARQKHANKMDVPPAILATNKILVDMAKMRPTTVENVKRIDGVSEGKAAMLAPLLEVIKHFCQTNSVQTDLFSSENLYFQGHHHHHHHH
Description: WRN (BV08) ADP-Glo Assay. The class given is biochemical. Conditions: 0.15 nM WRN, 5 μM ATP, 0.1 nM DNA duplex, 15 min preincubation, 60 min at 25° C., pH 7.5, 1% DMSO; read-out: ADP-Glo_hWRN_IC50. Summed up: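 ADP produced by WRN helicase fragment 517-1235 (L1074F, baculovirus/Sf9, untagged) read by ADP-Glo luminescence after 60 min at 25 °C with 5 μM ATP and 0.1 nM duplex DNA, following 15 min compound preincubation. Final enzyme 0.15 nM in Bicine pH 7.5 buffer, 1% DMSO; 20 μM NSC-617145 defined full inhibition.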
A general note: ADP-Glo first removes unused ATP, then detects ADP through luciferase.
On to `COc1cc(CN(C(=O)C(c2ccc(-c3ccc(F)c(F)c3)cc2F)n2cc(C(F)F)cn2)[C@@H]2C=CS(=O)(=O)C2)ccn1` (stereo partly drawn) [I-705, 2-[4-(difluoromethyl)-1H-pyrazol-1-yl]-N-[(3R)-1,1-dioxo-2,3-dihydro-1lambda6-thiophen-3-yl]-N-[(2-methoxypyridin-4-yl)methyl]-2-{3,3′,4′-trifluoro-[1,1′-biphenyl]-4-yl}acetamide], for which the IC50 was 0.5 to 5 µM.
The value for `O=C(C1CCc2cc(-n3cccc3)ccc21)N(Cc1ccncc1)C1C=CS(=O)(=O)C1` (stereo not shown) [I-477, N-(1,1-dioxo-2,3-dihydro-1lambda6-thiophen-3-yl)-N-[(pyridin-4-yl)methyl]-5-(1H-pyrrol-1-yl)-2,3-dihydro-1H-indene-1-carboxamide] was more than 50 µM; that for `CC(C)(O)c1cc(CN(C(=O)Cn2nc(-c3cc(F)c(F)c(F)c3)cc2N)C2C=CS(=O)(=O)C2)ccn1` (single isomer, unassigned) [I-821] was 0.5 to 5 µM; that for `O=C(Cc1ccc(-n2cccc2)cc1)N(Cc1ccc(C(F)(F)F)nc1)C1C=CS(=O)(=O)C1` (stereo not shown) [I-295, N-(1,1-dioxo-2,3-dihydro-1lambda6-thiophen-3-yl)-2-[4-(1H-pyrrol-1-yl)phenyl]-N-{[6-(trifluoromethyl)pyridin-3-yl]methyl}acetamide] was 10 to 50 µM.
In the case of `COc1cc(CN(C(=O)C(OCC2CCCN(S(C)(=O)=O)C2)c2ccc(-c3ccc(F)c(F)c3)cc2F)[C@@H]2C=CS(=O)(=O)C2)ccn1` (stereo partly drawn) [I-809, N-[(3R)-1,1-dioxo-2,3-dihydro-1lambda6-thiophen-3-yl]-2-[(1-methanesulfonylpiperidin-3-yl)methoxy]-N-[(2-methoxypyridin-4-yl)methyl]-2-{3,3′,4′-trifluoro-[1,1′-biphenyl]-4-yl}acetamide] it was 0.5 to 5 µM.
In the case of `CN(Cc1ccncc1)C(=O)c1ccc(CN(C(=O)Cc2ccc(-c3ccc(F)c(F)c3)cc2F)C2C=CS(=O)(=O)C2)cc1` (stereo not shown) [I-778, 4-{[N-(1,1-dioxo-2,3-dihydro-1lambda6-thiophen-3-yl)-2-{3,3′,4′-trifluoro-[1,1′-biphenyl]-4-yl}acetamido]methyl}-N-methyl-N-[(pyridin-4-yl)methyl]benzamide] it was 0.5 to 5 µM; in that of `CC(C)(O)c1cc(CN(C(=O)C(OCCC(F)F)c2ccc(-c3ccc(F)c(F)c3)cc2F)[C@@H]2C=CS(=O)(=O)C2)ccn1` (single isomer, unassigned) [I-812], less than 0.5 µM.
For `CC(C)(O)c1cc(CN(C(=O)C(OC(F)F)c2ccc(-c3ccc(F)c(F)c3)cc2F)[C@@H]2C=CS(=O)(=O)C2)ccn1` (single isomer, unassigned) [I-632], the IC50 was less than 0.5 µM.
In the case of `O=C(Cn1cc(-c2cc(F)c(F)c(F)c2)cn1)N(Cc1ccc(OCc2ccncc2)cc1)C1C=CS(=O)(=O)C1` (stereo not shown) [I-783, N-(1,1-dioxo-2,3-dihydro-1lambda6-thiophen-3-yl)-N-({4-[(pyridin-4-yl)methoxy]phenyl}methyl)-2-[4-(3,4,5-trifluorophenyl)-1H-pyrazol-1-yl]acetamide] it was less than 0.5 µM; in that of `O=C(Cc1ccc(-n2cccc2)cc1)N(Cc1ccc(F)cc1F)C1C=CS(=O)(=O)C1` (stereo not shown) [I-242, N-[(2,4-difluorophenyl)methyl]-N-(1,1-dioxo-2,3-dihydro-1lambda6-thiophen-3-yl)-2-[4-(1H-pyrrol-1-yl)phenyl]acetamide], 5 to 10 µM; in that of `CS(=O)(=O)c1ccc(CC(=O)N(Cc2ccncc2)C2C=CS(=O)(=O)C2)cc1` (stereo not shown) [I-527, N-(1,1-dioxo-2,3-dihydro-1lambda6-thiophen-3-yl)-2-(4-methanesulfonylphenyl)-N-[(pyridin-4-yl)methyl]acetamide], more than 50 µM.
In the case of `O=C(Cn1nc(C(F)F)c2c1CCCC2)N(Cc1ccncc1)C1C=CS(=O)(=O)C1` (stereo not shown) [I-616, 2-[3-(difluoromethyl)-4,5,6,7-tetrahydro-1H-indazol-1-yl]-N-(1,1-dioxo-2,3-dihydro-1lambda6-thiophen-3-yl)-N-[(pyridin-4-yl)methyl]acetamide] it was more than 50 µM; in that of `COc1cc(CN(C(=O)C(c2ccc(-c3ccc(F)c(F)c3)cc2F)n2cc(OC(F)F)cn2)[C@@H]2C=CS(=O)(=O)C2)ccn1` (single isomer, unassigned) [I-685, (2R*)-2-[4-(difluoromethoxy)-1H-pyrazol-1-yl]-N-[(3R)-1,1-dioxo-2,3-dihydro-1lambda6-thiophen-3-yl]-N-[(2-methoxypyridin-4-yl)methyl]-2-{3,3′,4′-trifluoro-[1,1′-biphenyl]-4-yl}acetamide], less than 0.5 µM.
In the case of `COc1cc(CN(C(=O)C(C)n2cc(-c3ccc(F)cc3)cn2)[C@@H]2C=CS(=O)(=O)C2)ccn1` (stereo partly drawn) [I-137, N-[(3R)-1,1-dioxo-2,3-dihydro-1lambda6-thiophen-3-yl]-2-[4-(4-fluorophenyl)-1H-pyrazol-1-yl]-N-[(2-methoxypyridin-4-yl)methyl]propanamide] it was 0.5 to 5 µM.
Turning to `COc1cc(CN(C(=O)Cc2ccc(-n3cccc3C)cc2F)C2C=CS(=O)(=O)C2)nc(OC)c1` (stereo not shown) [I-202, N-[(4,6-dimethoxypyridin-2-yl)methyl]-N-(1,1-dioxo-2,3-dihydro-1lambda6-thiophen-3-yl)-2-[2-fluoro-4-(2-methyl-1H-pyrrol-1-yl)phenyl]acetamide], the IC50 fell in the range of 0.5 to 5 µM.
In the case of `O=C(Cc1cccc(-n2cccc2)c1)N(Cc1ccncc1)C1C=CS(=O)(=O)C1` (stereo not shown) [I-528, N-(1,1-dioxo-2,3-dihydro-1lambda6-thiophen-3-yl)-N-[(pyridin-4-yl)methyl]-2-[3-(1H-pyrrol-1-yl)phenyl]acetamide] it was more than 50 µM; in that of `O=C(Cc1ccc(CC(F)(F)F)cc1)N(Cc1ccncc1)C1C=CS(=O)(=O)C1` (stereo not shown) [I-263, N-(1,1-dioxo-2,3-dihydro-1lambda6-thiophen-3-yl)-N-[(pyridin-4-yl)methyl]-2-[4-(2,2,2-trifluoroethyl)phenyl]acetamide], 5 to 10 µM; in that of `O=C(Cn1ncc2ccccc21)N(Cc1ccncc1)C1C=CS(=O)(=O)C1` (stereo not shown) [I-454, N-(1,1-dioxo-2,3-dihydro-1lambda6-thiophen-3-yl)-2-(1H-indazol-1-yl)-N-[(pyridin-4-yl)methyl]acetamide], more than 50 µM.
The value for `O=C(Cc1ccc(C2CC(F)(F)C2)cc1)N(Cc1ccncc1)C1C=CS(=O)(=O)C1` (stereo not shown) [I-359, 2-[4-(3,3-difluorocyclobutyl)phenyl]-N-(1,1-dioxo-2,3-dihydro-1lambda6-thiophen-3-yl)-N-[(pyridin-4-yl)methyl]acetamide] was 10 to 50 µM; that for `O=C(Cc1ccc(-n2cccc2)cc1)N(Cc1nc(C2CC2)cs1)[C@H]1C=CS(=O)(=O)C1` [I-402, N-[(4-cyclopropyl-1,3-thiazol-2-yl)methyl]-N-[(3S)-1,1-dioxo-2,3-dihydro-1lambda6-thiophen-3-yl]-2-[4-(1H-pyrrol-1-yl)phenyl]acetamide] was more than 50 µM.
The value for `O=C(O)c1cccc(CN(C(=O)Cc2ccc(-n3cccc3)cc2)C2C=CS(=O)(=O)C2)c1` (stereo not shown) [I-352, 3-{[N-(1,1-dioxo-2,3-dihydro-1lambda6-thiophen-3-yl)-2-[4-(1H-pyrrol-1-yl)phenyl]acetamido]methyl}benzoic acid] was 10 to 50 µM.
With `COc1cc(CN(C(=O)Cc2ccc(-n3cccc3C)cc2F)[C@H]2C=CS(=O)(=O)C2)ccn1` [I-425, N-[(3S)-1,1-dioxo-2,3-dihydro-1lambda6-thiophen-3-yl]-2-[2-fluoro-4-(2-methyl-1H-pyrrol-1-yl)phenyl]-N-[(2-methoxypyridin-4-yl)methyl]acetamide], the IC50 was more than 50 µM.
The value for `COc1cc(CN(C(=O)Cc2ccc(-c3cscn3)cc2F)C2C=CS(=O)(=O)C2)ccn1` (stereo not shown) [I-363, N-(1,1-dioxo-2,3-dihydro-1lambda6-thiophen-3-yl)-2-[2-fluoro-4-(1,3-thiazol-4-yl)phenyl]-N-[(2-methoxypyridin-4-yl)methyl]acetamide] was 10 to 50 µM; that for `COc1cc(CN(C(=O)C(OC2COC2)c2ccc(-c3ccc(F)c(F)c3)cc2F)[C@@H]2C=CS(=O)(=O)C2)ccn1` (stereo partly drawn) [I-752, N-[(3R)-1,1-dioxo-2,3-dihydro-1lambda6-thiophen-3-yl]-N-[(2-methoxypyridin-4-yl)methyl]-2-(oxetan-3-yloxy)-2-{3,3′,4′-trifluoro-[1,1′-biphenyl]-4-yl}acetamide] was 5 to 10 µM; that for `NCCc1cccn1-c1ccc(CC(=O)N(Cc2ccccc2)C2C=CS(=O)(=O)C2)cc1` (stereo not shown) [I-268, 2-{4-[2-(2-aminoethyl)-1H-pyrrol-1-yl]phenyl}-N-benzyl-N-(1,1-dioxo-2,3-dihydro-1lambda6-thiophen-3-yl)acetamide] was 5 to 10 µM.
As for `CC(C)(O)c1cc(CN(C(=O)Cn2ccc(-c3ccc(F)c(F)c3)cc2=O)[C@@H]2C=CS(=O)(=O)C2)ccn1` [I-13, (R)-2-(4-(3,4-difluorophenyl)-2-oxopyridin-1(2H)-yl)-N-(1,1-dioxido-2,3-dihydrothiophen-3-yl)-N-((2-(2-hydroxypropan-2-yl)pyridin-4-yl)methyl)acetamide], the IC50 is less than 0.5 µM.
In the case of `COC(C(=O)N(Cc1nc(C2CC2)cs1)C1C=CS(=O)(=O)C1)c1ccc(-c2ccc(F)c(F)c2)cc1F` (stereo not shown) [I-47, N-[(4-cyclopropyl-1,3-thiazol-2-yl)methyl]-N-(1,1-dioxo-2,3-dihydro-1lambda6-thiophen-3-yl)-2-methoxy-2-{3,3′,4′-trifluoro-[1,1′-biphenyl]-4-yl}acetamide] it was less than 0.5 µM.
The value for `O=C(Cc1ccc(-n2cccc2)cc1)N(Cc1c(F)cccc1F)C1C=CS(=O)(=O)C1` (stereo not shown) [I-294, N-[(2,6-difluorophenyl)methyl]-N-(1,1-dioxo-2,3-dihydro-1lambda6-thiophen-3-yl)-2-[4-(1H-pyrrol-1-yl)phenyl]acetamide] was 10 to 50 µM.
